According to US7855076B2, “Use of discoidin domain receptor 1 (DDR1) and agents that affect the DDR1/collagen pathway” (The United States of America as represented by the …, priority 2002, dated 2010):

What was measured:
Type in all cases: cell-based, human
DDR1 protein = DDR1 protein expression in leukocytes by immunoprecipitation and Western blotting
Description: For Western blot analysis, cell lysates were prepared from freshly isolated PBMC, PBMC incubated overnight in RPMI 1640 containing 10% FCS, and MCF-7 cells. Cells were lysed on ice for 20 minutes in a buffer containing 50 mM Hepes, 150 mM NaCl, 1% Triton X-100, 10% glycerol, 10 mM NaF, 1 mM ethylenediamine tetraacetic acid, […], 1 mg/ml leupeptin, 1 mM phenylmethylsulfonyl fluoride, 1 mg/ml aprotinin, and 1 mg/ml pepstatin A. The lysates were spun, and the supernatants were collected. The samples were incubated with approximately 20 μl packed volume of PGS for 1 hour at 4° C. After centrifugation, supernatants were collected, mixed with 1 μg/ml normal rabbit IgG or polyclonal anti-human DDR1 IgG, and incubated for 1 hour at 4° C. PGS (20 μl) was then added and incubated for another 1 hour. IgG-coupled PGS was washed with the buffer containing 50 mM Hepes, 150 mM NaCl, 0.1% Triton X-100, 10% glycerol buffer three times, and 20 μl double-strength sample buffer (20% glycerol, 6% sodium dodecylsulfate (SDS), 10% 2-mercaptoethanol) was added. The samples were boiled for 10, minutes. Eluted proteins were analyzed on 7.5% polyacrylamide gels by SDS polyacrylamide gel electrophoresis (SDS-PAGE) and transferred electrophoretically to nitrocellulose membranes (Amersham, Arlington Heights, Ill.) at 200 mA for 2 hours by a semi-dry system. The membranes were incubated with polyclonal anti-human DDR1 or anti-phosphotyrosine IgG, followed by sheep anti-mouse IgG coupled with horseradish peroxidase (Amersham). Peroxidase activity was visualized by the Enhanced Chemiluminescence Detection System (Amersham).
There was no detectable DDR1 protein in freshly isolated PBMC. DDR1 protein was detected clearly after overnight incubation in RPMI 1640 containing 10% FCS. In order to study the kinetics of DDR1 protein expression, PBMC were incubated with or withour addition of TNF-α (5 ng/ml), or GM-CSF (10 ng/ml) for 36 hours and cell lysates were prepared. Cell lysates were subjected to immunoprecipitation with anti-DDR1 IgG or control IgG. […]

DDR1 mRNA = DDR1 mRNA expression in PBMC by Northern blotting; settings: 8 hours, TNF-α 5 ng/ml, IL-1β 10 ng/ml, IFN-γ 50 U/ml, GM-CSF 10 ng/ml, LPS 1 μg/ml, PHA 5 μg/ml
Description: PMN and PBMC were maintained at a density of 5×10^6 cells/ml in the complete medium in six-well tissue culture cluster (Coster, Cambridge, Mass.; 3 ml/well). Total RNA was extracted from each culture by using TRIZOL® Reagent. PolyA mRNA was purified on Oligotex columns (Qiagen, Valencia, Calif.). Northern blot analysis was performed as described (Yoshimura, J. Immunol. 150:5025, 1993), except that ULTRAhyb (Ambion) was used. A human DDR1 cDNA (757-bp) was obtained by PCR from a U-105 human glioblastoma cell line cDNA library and was ligated into the EcoRI/HindIII site of the pBluescript (Stratagene, La Jolla, Calif.). The sense primer was 5′-[…]-3′ (SEQ ID NO: 2; corresponding to residues between 68 and 87 in the nucleotide sequence of the trkE cDNA, GenBank accession number X74979) and the antisense primer was 5′-[…]-3′ (SEQ ID NO: 3; corresponding to residues between 805 and 824 in the nucleotide sequence of the trkE cDNA).
Freshly isolated PBMC expressed only a low level of DDR1 mRNA. The expression level was increased about eightfold when the cells were incubated in either RPMI 1640 or RPMI 1640 containing 10% FCS.

DDR1 = experiment: Cell-surface DDR1 expression on PMN by flow cytometry; settings: 24 hours
Description: PMN were incubated in presence of IFN-γ or GM-CSF for 24 hours and the expression of cell-surface DDR1 was measured by flow cytometry using an antibody raised against the extracellular domain of the receptor. One hundred thousand cells were suspended in 50 μl of cold PBS containing 0.1% NaN3, […] BSA and 200 μg/ml human IgG in a Falcon 2052, tube, and incubated for 10 minutes on ice. One μg of anti-DDR1 rabbit polyclonal antibody raised aginst the N-terminus of DDR1 (Transgenic, Inc., Kumamoto, Japan), or control mouse IgG was added to each tube and the cells were incubated for another 15 minutes on ice. The cells were washed with PBS, and then incubated with 1 μg of FITC-conjugated goat anti-mouse IgG for 15 minutes on ice. At the end of incubation, PI was added to each tube (100 μM). The cells were washed by PBS, and subsequently analyzed by using a FACS scan (Becton Dickinson). Dead cells, determined by the incorporation of PI, were gated out. Results were processed by using the Cellquest software (Becton Dickinson).

THP-1 cells [1] = experiment: Cell migration assay, 24-well BioCoat Insert Chamber; settings: parental, mock-infected and DDR1a-overexpressing THP-1 cells; MCP-1 10 ng/ml in outer wells, membrane only, 3 hours
Description: Migration of each cell type in response to medium (open column) or MCP-1 (closed column) was measured in the 24-well BioCoat Insert Chamber as described in Example 1 below. In FIG. 3A, results are shown from experiments where inner wells and outer wells were separated by a membrane only. Chambers were incubated at 37° C. for 3 hours. In FIG. 3B, results are shown from experiments where approximately 3 mm of collagen lattice was created above the membrane. Chambers were incubated at 37° C. for 8 hours. The number of migrated cells was counted in each 400× magnified field. The results were presented as migration index denoting the fold increase of cell migration over control (the number of migrated parental cells=1). Data are representative of three experiments with two independent clones overexpressing either DDR1, a or DDR1b.
The cell migration assay was performed by using the 24-well BioCoat Insert Chamber (Becton Dickinson, Bedford, Mass.). […] After a 3-hour incubation at 37° C., the numbers of cells that were adhering on the other side of the membrane and also had fallen into the outer wells were counted. […] After an 8-hour incubation at 37° C., the numbers of cells that were adhering on the other side of the membrane and also had fallen into the outer wells were counted. […]

THP-1 cells [2] = experiment: Adherence of THP-1 cells to coated plates; settings: plates coated with fibronectin; DDR1a- and DDR1b-overexpressing cells
Description: 5×10^5 cells/ml were cultured on either BSA (10 mg/ml)- or collagen (20 μg/ml) and BSA-coated plates for 30 (FIG. 2A) or 120 minutes (FIG. 2B) at 37° C. in a 5% CO2 humidified incubator. Normal mouse IgG or anti-β1 integrin blocking IgG was added to measure the effect of β1 integrin in the assay. The number of adherent cells in each 400× visual field was counted. The results are presented as means ±SE of four individual fields. Data are representative of three experiments with two independent clones overexpressing either DDR1a or DDR1b.
To determine the effects of collagen on the functions of DDR1a- and DDR1b-overexpressing THP-1 cells, the cells were incubated on collagen-coated plastic plates. Twenty-four-well plates were coated with 100 μl/well human collagen type I (20 μg/ml) overnight at 4° C., and then with 200 μl/well 10 mg/ml bovine serum albumin (BSA) for 1 hour at 37° C. Cells were plated at the cell density of 1×10^5 cells/ml to the coated wells and were incubated for 30 minutes at 37° C. in 5% CO2 humidified atmosphere. Nonadherent cells were removed by washing three times with PBS. Cells that remained on the coated surface were considered to be adherent, and the number of cells in each 400 field was counted. Results were presented as mean ±SE per 400 field.

PMN = experiment: MCP-1 release by PMN (neutrophils), ELISA
Description: Human PMN and peripheral blood mononuclear cells (PBMC) were obtained from heparinized blood from human donors (10 units of heparin per ml of blood). One volume of 5% dextran (T-500 Pharmacia, Piscataway, N.J.) in phosphate buffered saline (PBS) was added to three volumes of blood in 50 ml polypropylene tubes. After a 40 minute incubation at room temperature, the leukocyte-rich plasma layer was removed and overlaid onto Lymphoprep in 50 ml tubes and the tubes were centrifuged at 800×g for 20 minutes at room temperature. PMN were separated from erythrocytes by lysis in 0.2% NaCl, washed in complete medium three times at 4° C. and resuspended in complete medium. PBMC contained in the PMN preparations obtained by this method were less than 0.5% by morphologic examination. Cell viability was higher than 98% by trypan blue staining.
A panel of cytokines was previously tested for their ability to induce MCP-1 production in PMN and it was reported that TNF-α and IFN-γ could cooperate to induce a high level of MCP-1 production (Yamashiro et al., J. Leukoc. Biol. 69:698, 2001). […] The majority of MCP-1 was released between 24 hours and 48 hours, showing a delayed kinetics of MCP-1 release. […] The effect of IFN-γ was dose-dependent.
To confirm that activation of DDR1 was responsible for the increased release of MCP-1 by PMN treated with IFN-γ and collagen, 513 anti-DDR1 Ab was used instead of collagen. The concentrations of MCP-1 were measured in the Lymphokine Testing Laboratory, Clinical Services Program, SAIC-Frederick (Frederick, Md.) with an ELISA kit (R&D Systems) specific for human MCP-1.

GM-CSF: human recombinant granulocyte macrophage-colony stimulating factor
level of DDR1 protein expression (DDR1 protein; PBMC, TNF-α 5 ng/ml or GM-CSF 10 ng/ml, 36 hours): increased
DDR1 protein expression (DDR1 protein; monocytes): increased
level of DDR1 mRNA expression (DDR1 mRNA): further augmented
level of DDR1 expression (DDR1): slightly increased

MCP-1: human recombinant monocyte chemoattractant protein-1
migration of cells (THP-1 cells [1]): increased two- to threefold

fibronectin [reference compound]
adherence or shape change (THP-1 cells [2]): no effect

B1: IFN-γ: human recombinant interferon-γ (protein, UniProt P01579 24-161, looked up)
Interferon gamma: QDPYVKEAENLKKYFNAGHSDVADNGTLFLGILKNWKEESDRKIMQSQIVSFYFKLFKNFKDDQSIQKSVETIKEDMNVKFFNSNKKKRDDFEKLTNYSVTDLNVQRKAIHELIQVMAELSPAAKTGKRKRSQMLFRG
MCP-1 production (PMN; PMN on collagen-coated plates with IFN-γ): potent synergistic effect
MCP-1 release (PMN; PMN, IFN-γ alone, uncoated plates): no significant MCP-1 release
dose dependence of effect on MCP-1 release (PMN; PMN, collagen-coated plates): dose-dependent
level of DDR1 mRNA expression (DDR1 mRNA): partially inhibited
level of DDR1 expression (DDR1): markedly increased
